Results as given in ChEMBL document CHEMBL5131385, “Novel piperazine based benzamide derivatives as potential anti-glioblastoma agents inhibiting cell proliferation and cell cycle progression” (Eur J Med Chem, 2022).
pIC50: −log10 of the molar value. Activity calls are given as the source filed them. The rule behind the calls is not given here.

Assays:
C6 = assay: Antiproliferative activity against rat C6 cells assessed as inhibition of cell proliferation measured after 72 hrs by CCK8 assay; assay type: functional, cell-based; conditions: C6, 72 h
[1] = Antiproliferative activity against human U-87 MG cells assessed as inhibition of cell proliferation measured after 72 hrs by CCK8 assay; assay type: functional, cell-based, U-87MG ATCC
U-251 [2] = assay: Antiproliferative activity against human U-251 cells assessed as inhibition of cell proliferation measured after 72 hrs by CCK8 assay; assay type: functional, cell-based; conditions: U-251, 72 h
U-87MG ATCC [3] = assay: Antitumor activity against human U-87 MG cells xenografted in BALB/c mouse assessed as decrease in tumor volume at 10 mg/kg,ip bid for 1 month; assay type: functional, organism-based; conditions: time 1.0 months
[4] = Induction of apoptosis in human U-87 MG cells assessed as late apoptotic cells at 1.20 uM incubated for 72 hrs by Annexin V-FITC/PI staining based flow cytometry method (reference value: 0.42 %); assay type: functional, U-87MG ATCC; conditions: dose 1.2 µM
U-251 [5] = assay: Induction of apoptosis in human U-251 cells assessed as necrotic cells at 6 uM incubated for 72 hrs by Annexin V-FITC/PI staining based flow cytometry method (Rvb =0.51 %); assay type: functional
U-251 [6] = assay: Induction of apoptosis in human U-251 cells assessed as viable cells at 6 uM incubated for 72 hrs by Annexin V-FITC/PI staining based flow cytometry method (reference value: 96.22 %); assay type: functional; conditions: read-out: Activity
[7] = Induction of apoptosis in human U-87 MG cells assessed as viable cells at 1.20 uM incubated for 72 hrs by Annexin V-FITC/PI staining based flow cytometry method (reference value: 96.84 %); assay type: functional, U-87MG ATCC; conditions: read-out: Activity
U-87MG ATCC [8] = assay: Antitumor activity against human U-87 MG cells xenografted in BALB/c mouse assessed as decrease in tumor weight at 10 mg/kg,ip bid for 1 month; assay type: functional, organism-based; conditions: time 1.0 months
[9] = Induction of apoptosis in human U-87 MG cells assessed as early apoptotic cells at 1.20 uM incubated for 72 hrs by Annexin V-FITC/PI staining based flow cytometry method (reference value: 2.53 %); assay type: functional, U-87MG ATCC; conditions: dose 1.2 µM
U-251 [10] = assay: Induction of apoptosis in human U-251 cells assessed as early apoptotic cells at 6 uM incubated for 72 hrs by Annexin V-FITC/PI staining based flow cytometry method (Rvb =1.96 %); assay type: functional
[11] = Induction of apoptosis in human U-87 MG cells assessed as necrotic cells at 1.20 uM incubated for 72 hrs by Annexin V-FITC/PI staining based flow cytometry method (reference value: 0.21 %); assay type: functional, U-87MG ATCC; conditions: dose 1.2 µM
U-251 [12] = assay: Induction of apoptosis in human U-251 cells assessed as late apoptotic cells at 6 uM incubated for 72 hrs by Annexin V-FITC/PI staining based flow cytometry method (Rvb =1.31 %); assay type: functional

pIC50 (U-251 [2]) | Compound | pIC50 (C6) | pIC50 [1] | also measured
5.27 | CS(=O)(=O)N1CCN(c2ccccc2C(=O)Nc2ccc(CNC(=O)OCc3cccnc3)cc2)CC1 | 6.07 | 5.99 | –
5.49 | O=C(NCc1ccc(NC(=O)c2ccccc2N2CCN(CCO)CC2)cc1)OCc1cccnc1 | 6.54 | 6.19 | –
5.23 | O=C(NCc1ccc(NC(=O)c2ccccc2N2CCN(CCF)CC2)cc1)OCc1cccnc1 | 6.34 | 6.39 | –
5.17 | CCCN1CCN(c2ccccc2C(=O)Nc2ccc(CNC(=O)OCc3cccnc3)cc2)CC1 | 6.44 | 6.38 | –
5.34 | CCN1CCN(c2ccccc2C(=O)Nc2ccc(CNC(=O)OCc3cccnc3)cc2)CC1 | 6.44 | 6.37 | –
5.22 | CC(C)N1CCN(c2ccccc2C(=O)Nc2ccc(CNC(=O)OCc3cccnc3)cc2)CC1 | 6.39 | 6.60 | –
5.20 | CN1CCN(c2ccccc2C(=O)Nc2ccc(CNC(=O)OCc3cccnc3)cc2)CC1 | 6.28 | 5.90 | –
5.57 | O=C(NCc1ccc(NC(=O)c2ccccc2N2CCN(C3CC3)CC2)cc1)OCc1cccnc1 | 5.95 | 5.98 | –

The remaining lines, values behind:

Compound | pIC50 (U-251 [2]) | pIC50 (C6) | pIC50 [1] | also measured
COCCN1CCN(c2cccc(F)c2C(=O)Nc2ccc(CNC(=O)OCc3cccnc3)cc2)CC1 | 4.60 | 6.10 | 5.40 | –
COCCN1CCN(c2ccc(N)cc2C(=O)Nc2ccc(CNC(=O)OCc3cccnc3)cc2)CC1 | 5.40 | 6.59 | 6.25 | –
COCCN1CCN(c2ccc(NC(=O)OC(C)(C)C)cc2C(=O)Nc2ccc(CNC(=O)OCc3cccnc3)cc2)CC1 | < 4.52 | < 4.52 | < 4.52 | –
COCCN1CCN(c2ccc(OC)cc2C(=O)Nc2ccc(CNC(=O)OCc3cccnc3)cc2)CC1 | 4.69 | 5.98 | 5.46 | –
Cn1nnc2c(C(N)=O)ncn2c1=O [TEMOZOLOMIDE] | < 4.52 | < 4.52 | < 4.52 | Activity (U-87MG ATCC [3]): Active; Activity [4]: 0.98%; Activity (U-251 [5]): 0.49%; viability at 6 µM (U-251 [6]): 96.2%; viability at 1.2 µM [7]: 96.2%; Activity (U-87MG ATCC [8]): Active; Activity [9]: 2.5%; Activity (U-251 [10]): 1.6%; Activity [11]: 0.27%; Activity (U-251 [12]): 1.73%
COCCN1CCN(c2ccc(Cl)cc2C(=O)Nc2ccc(CNC(=O)OCc3cccnc3)cc2)CC1 | 4.98 | 5.75 | 6.00 | –
O=C(NCc1ccc(NC(=O)c2ccccc2N2CCN(C3CCC3)CC2)cc1)OCc1cccnc1 | 5.39 | 5.99 | 6.21 | –
COCCN1CCN(c2ccc(C(F)(F)F)cc2C(=O)Nc2ccc(CNC(=O)OCc3cccnc3)cc2)CC1 | < 4.52 | 4.86 | 5.07 | –
COCCN1CCN(c2cc(C)ccc2C(=O)Nc2ccc(CNC(=O)OCc3cccnc3)cc2)CC1 | 5.53 | 6.05 | 6.28 | –
COCCN1CCN(c2cc(F)ccc2C(=O)Nc2ccc(CNC(=O)OCc3cccnc3)cc2)CC1 | 5.64 | 6.66 | 6.28 | –
O=C(NCc1ccc(NC(=O)c2ccccc2N2CCOCC2)cc1)OCc1cccnc1 | 5.21 | 5.32 | 6.05 | –
COCCN1CCN(c2c(C)cccc2C(=O)Nc2ccc(CNC(=O)OCc3cccnc3)cc2)CC1 | 5.03 | 6.36 | 6.00 | –
COCCN1CCN(c2ccc(Br)cc2C(=O)Nc2ccc(CNC(=O)OCc3cccnc3)cc2)CC1 | 4.61 | 5.58 | 5.58 | –
O=C(NCc1ccc(NC(=O)c2ccccc2N2CCN(C3COC3)CC2)cc1)OCc1cccnc1 | 5.63 | 6.24 | 6.31 | –
COCCN1CCN(c2ccc(-c3ccccc3)cc2C(=O)Nc2ccc(CNC(=O)OCc3cccnc3)cc2)CC1 | < 4.52 | < 4.52 | < 4.52 | –
O=C(NCc1ccc(NC(=O)c2ccccc2N2CCN(CC3CC3)CC2)cc1)OCc1cccnc1 | 4.97 | 6.10 | 5.97 | –
COCCN1CCN(c2ccccc2C(=O)Nc2ccc(CNC(=O)OCc3cccnc3)cc2)CC1 | 5.47 | 6.62 | 6.40 | –
Nc1ccccc1NC(=O)c1ccc(CNC(=O)OCc2cccnc2)cc1 [ENTINOSTAT] | < 4.52 | 6.48 | 5.36 | –
COCCN1CCN(c2ccc(C)cc2C(=O)Nc2ccc(CNC(=O)OCc3cccnc3)cc2)CC1 | 4.90 | 5.89 | 5.72 | –
